The text below walks through data of US8188135B2, “Compounds as cannabinoid receptor ligands” (priority 2008, dated 2012).

Where two headings read alike, the source gives them in different places. Where only a bound is given, the exact number is not on record here.

For one test, the target named is T1, human CB2 receptors (Homo sapiens, UniProt P34972).
T1 construct: expressed in transfected cells; host or cells: HEK293
The experiment in a line: human CB2 radioligand binding assay ([3H]CP 55,940 competition). Conditions: HEK293 membranes, 0.5 nM [3H]CP 55,940. As to the method:
(§1) The CB1 and CB2 radioligand binding assays described herein are utilized to ascertain the affinity of compounds of the present application for binding to CB2 relative to CB1 receptors.
HEK293 cells stably expressing human CB2 receptors were grown until a confluent monolayer was formed. Briefly, the cells were harvested and homogenized in TE buffer (50 mM Tris-HCl, 1 mM MgCl2, and 1 mM EDTA) using a polytron for 2×10 second bursts in the presence of protease inhibitors, followed by centrifugation at 45,000×g for 20 minutes. The final membrane pellet was re-homogenized in storage buffer (50 mM Tris-HCl, 1 mM MgCl2, and 1 mM EDTA and 10% sucrose) and frozen at −78° C. until used. Saturation binding reactions were initiated by the addition of membrane preparation (protein concentration of 5 μg/well for human CB2) into wells of a deep well plate containing [^3H]CP 55,940 (120 Ci/mmol, a nonselective CB agonist commercially available from Tocris) in assay buffer (50 mM Tris, 2.5 mM EDTA, 5 mM MgCl2, and 0.5 mg/mL fatty acid free BSA, pH 7.4). After 90 min incubation at 30° C., binding reaction was terminated by the addition of 300 μL/well of cold assay buffer followed by rapid vacuum filtration through a UniFilter-96 GF/C filter plates (pre-soaked in 1 mg/mL BSA for 2 hours). The bound activity was counted in a TopCount using Microscint-20. Saturation experiments were conducted with twelve concentrations of [^3H]CP 55,940 ranging from 0.01 to 8 nM. Competition experiments were conducted with 0.5 nM [^3H]CP 55,940 and five concentrations (0.01 nM to 10 μM) of displacing ligands. The addition of 10 μM unlabeled CP 55,940 (Tocris, Ellisville, Mo.) was used to assess nonspecific binding.

The target of a further test is T2, rat CB2 (Rattus norvegicus, UniProt Q9QZN9).
T2 sequence (Q9QZN9 1-360): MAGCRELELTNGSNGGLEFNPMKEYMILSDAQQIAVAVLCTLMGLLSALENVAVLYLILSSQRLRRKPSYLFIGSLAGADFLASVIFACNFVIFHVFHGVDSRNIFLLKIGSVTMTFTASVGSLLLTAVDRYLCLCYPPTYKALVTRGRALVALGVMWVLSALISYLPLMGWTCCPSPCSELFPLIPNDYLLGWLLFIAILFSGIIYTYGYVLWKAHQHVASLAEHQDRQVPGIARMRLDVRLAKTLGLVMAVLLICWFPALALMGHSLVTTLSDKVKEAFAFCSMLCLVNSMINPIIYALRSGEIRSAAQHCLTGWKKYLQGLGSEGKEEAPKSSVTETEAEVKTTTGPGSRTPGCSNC
As to the kind of experiment: rat CB2 radioligand binding assay ([3H]CP 55,940 competition). Also noted: expressed in transfected cells; host or cells: HEK293. As to conditions: HEK293 membranes, 0.5 nM [3H]CP 55,940. As to the method: as §1
HEK293 cells stably expressing rat CB2 receptors were grown until a confluent monolayer was formed. Briefly, the cells were harvested and homogenized in TE buffer (50 mM Tris-HCl, 1 mM MgCl2, and 1 mM EDTA) using a polytron for 2×10 second bursts in the presence of protease inhibitors, followed by centrifugation at 45,000×g for 20 minutes. The final membrane pellet was re-homogenized in storage buffer (50 mM Tris-HCl, 1 mM MgCl2, and 1 mM EDTA and 10% sucrose) and frozen at −78° C. until used. Saturation binding reactions were initiated by the addition of membrane preparation (protein concentration of 20 μg/well for rat CB2) into wells of a deep well plate containing [^3H]CP 55,940 (120 Ci/mmol, a nonselective CB agonist commercially available from Tocris) in assay buffer (50 mM Tris, 2.5 mM EDTA, 5 mM MgCl2, and 0.5 mg/mL fatty acid free BSA, pH 7.4). After 45 min incubation at 30° C., binding reaction was terminated by the addition of […] of cold assay buffer followed by rapid vacuum filtration through a UniFilter-96 GF/C filter plates (pre-soaked in 1 mg/mL BSA for 2 hours). The bound activity was counted in a TopCount using Microscint-20. Saturation experiments were conducted with twelve concentrations of [^3H]CP 55,940 ranging from 0.01 to 8 nM. Competition experiments were conducted with 0.5 nM [^3H]CP 55,940 and five concentrations of displacing ligands selected from the range of 0.01 nM to 10 μM. The addition of 10 μM unlabeled CP 55,940 (Tocris, Ellisville, Mo.) was used to assess nonspecific binding.

T1 sequence (P34972 whole entry): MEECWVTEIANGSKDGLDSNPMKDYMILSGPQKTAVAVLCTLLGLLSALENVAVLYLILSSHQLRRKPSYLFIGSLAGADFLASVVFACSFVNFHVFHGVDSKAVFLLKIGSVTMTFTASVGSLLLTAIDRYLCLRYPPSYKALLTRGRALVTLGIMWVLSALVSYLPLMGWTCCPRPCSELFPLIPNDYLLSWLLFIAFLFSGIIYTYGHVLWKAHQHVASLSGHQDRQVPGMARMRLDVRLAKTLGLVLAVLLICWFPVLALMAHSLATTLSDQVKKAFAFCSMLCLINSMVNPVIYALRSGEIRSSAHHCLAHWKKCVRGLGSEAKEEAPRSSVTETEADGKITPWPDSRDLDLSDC

Consider `CCCCn1/c(=N/C(=O)c2cc(C(F)(F)F)ccc2SCC(N)=O)cc(C(C)(C)C)n1C` [Example 140, 2-[(2-amino-2-oxoethyl)thio]-N-[(3E)-2-butyl-5-tert-butyl-1-methyl-1,2-dihydro-3H-pyrazol-3-ylidene]-5-(trifluoromethyl)benzamide], for which the Ki – broadly, the equilibrium dissociation constant of an inhibitor or competing ligand from its target – at human CB2 receptors (human CB2 (Ki, nM)) was 136 nM; on rat CB2 (rat CB2 (Ki, nM)), 11 nM.

As to `COC(=O)c1ccc(OCC(C)(C)O)c(C(=O)/N=c2\cc(C(C)(C)C)n(C)n2C[C@H]2CCCO2)c1` [Example 132, methyl 3-[({(3E)-tert-butyl-1-methyl-2-[(2R)-tetrahydrofuran-2-ylmethyl]-1,2-dihydro-3H-pyrazol-3-ylidene}amino)carbonyl]-4-(2-hydroxy-2-methylpropoxy)benzoate], the results for the Ki on human CB2 receptors (read-out: human CB2 (Ki)) and at rat CB2 (read-out: rat CB2 (Ki)) were 127 nM and 51 nM, respectively.

As to `Cn1c(C(C)(C)C)c/c(=N\C(=O)c2cc(C(F)(F)F)ccc2OCc2ccccn2)n1C[C@H]1CCCO1` [Example 38, N-{(3E)-5-tert-butyl-1-methyl-2-[(2R)-tetrahydrofuran-2-ylmethyl]-1,2-dihydro-3H-pyrazol-3-ylidene}-2-(pyridin-2-ylmethoxy)-5-(trifluoromethyl)benzamide], the Ki at human CB2 receptors (read-out: human CB2 (Ki)) is > 1000 nM; on rat CB2 (rat CB2 (Ki, nM)) it was 26 nM.

In the case of `CC(C)(C)c1nn(CCCC#N)/c(=N/C(=O)c2cc(C(F)(F)F)ccc2OCCCC#N)s1` [Example 85, N-[(2Z)-5-tert-butyl-3-(3-cyanopropyl)-1,3,4-thiadiazol-2(3H)-ylidene]-2-(3-cyanopropoxy)-5-(trifluoromethyl)benzamide], the Ki on human CB2 receptors (human CB2 (Ki, nM)) turned out to be 20 nM; at rat CB2 (rat CB2 (Ki, nM)), 2.5 nM.

As for `CCCCN1CC(C)(C)S/C1=N\C(=O)c1cc(C(F)(F)F)ccc1OCC(C)(C)O` [Example 94, N-[(2Z)-3-butyl-5,5-dimethyl-1,3-thiazolidin-2-ylidene]-2-(2-hydroxy-2-methylpropoxy)-5-(trifluoromethyl)benzamide], the Ki on human CB2 receptors (human CB2 (Ki, nM)) was 3.9 nM; on rat CB2 (rat CB2 (Ki, nM)), 5 nM.

On to `Cn1c(C(C)(C)C)c/c(=N\C(=O)c2cc(C(F)(F)F)ccc2OC[C@@H]2CCCN2S(C)(=O)=O)n1C[C@H]1CCCO1` [Example 61, N-{(3E)-5-tert-butyl-1-methyl-2-[(2R)-tetrahydrofuran-2-ylmethyl]-1,2-dihydro-3 H-pyrazol-3-ylidene}-2-{[(2S)-1-(methylsulfonyl)pyrrolidin-2-yl]methoxy}-5-(trifluoromethyl)benzamide], for which the Ki was > 1000 nM at human CB2 receptors (human CB2 (Ki, nM)) and 433 nM at rat CB2 (rat CB2 (Ki, nM)).

As for `CN1CCC[C@H]1COc1ccc(C(F)(F)F)cc1C(=O)/N=c1\ccc(C(C)(C)C)cn1C[C@H]1CCCO1` [Example 59, N-[(2E)-5-tert-butyl-1-[(2R)-tetrahydrofuran-2-ylmethyl]pyridin-2(1H)-ylidene]-2-{[(2S)-1-methylpyrrolidin-2-yl]methoxy}-5-(trifluoromethyl)benzamide], the Ki was 294 nM at human CB2 receptors (human CB2 (Ki, nM)) and 69 nM on rat CB2 (rat CB2 (Ki, nM)).

`Cn1c(C(C)(C)C)c/c(=N\C(=O)c2cc(C(F)(F)F)ccc2OCC(C)(C)CO)n1C[C@H]1CCCO1` [Example 116, N-{(3E)-5-tert-butyl-1-methyl-2-[(2R)-tetrahydrofuran-2-ylmethyl]-1,2-dihydro-3H-pyrazol-3-ylidene}-2-(3-hydroxy-2,2-dimethylpropoxy)-5-(trifluoromethyl)benzamide]: the Ki on human CB2 receptors (read-out: human CB2 (Ki)) is > 1000 nM; at rat CB2 (read-out: rat CB2 (Ki)), 199 nM.

`C[C@H](O)[C@H](C)Oc1ccc(C(F)(F)F)cc1C(=O)/N=c1\cc(C(C)(C)C)n(C)n1C[C@H]1CCCO1` [Example 103, N-{(3E)-5-tert-butyl-1-methyl-2-[(2R)-tetrahydrofuran-2-ylmethyl]-1,2-dihydro-3 H-pyrazol-3-ylidene}-2-{[(1S,2S)-2-hydroxy-1-methylpropyl]oxy}-5-(trifluoromethyl)benzamide]: the Ki on human CB2 receptors (human CB2 (Ki, nM)) amounted to 3.8 nM; at rat CB2 (rat CB2 (Ki, nM)), 1.7 nM.

For `CCCCn1cc(C(C)(C)C)o/c1=N\C(=O)c1cc(C(F)(F)F)ccc1OCC(C)(C)O` [Example 93, N-[(2Z)-3-butyl-5-tert-butyl-1,3-oxazol-2(3H)-ylidene]-2-(2-hydroxy-2-methylpropoxy)-5-(trifluoromethyl)benzamide], the Ki amounted to 3.6 nM on human CB2 receptors (human CB2 (Ki, nM)) and 3.9 nM on rat CB2 (rat CB2 (Ki, nM)).

Regarding `CC[C@H](O)COc1ccc(C(F)(F)F)cc1C(=O)/N=c1\cc(C(C)(C)C)n(C)n1C[C@H]1CCCO1` [Example 109, N-{(3E)-5-tert-butyl-1-methyl-2-[(2R)-tetrahydrofuran-2-ylmethyl]-1,2-dihydro-3H-pyrazol-3-ylidene}-2-{[(2S)-2-hydroxybutyl]oxy}-5-(trifluoromethyl)benzamide], the Ki on human CB2 receptors (human CB2 (Ki, nM)) turned out to be 1.3 nM; on rat CB2 (rat CB2 (Ki, nM)), 1.2 nM.

Consider `CCCn1/c(=N/C(=O)c2cc(C(F)(F)F)ccc2OCC(C)(C)O)cc(C(C)(C)C)n1C` [Example 125, N-[(3E)-5-tert-butyl-1-methyl-2-propyl-1,2-dihydro-3H-pyrazol-3-ylidene]-2-(2-hydroxy-2-methylpropoxy)-5-(trifluoromethyl)benzamide], for which the Ki at human CB2 receptors (read-out: human CB2 (Ki)) worked out at 211 nM; at rat CB2 (rat CB2 (Ki, nM)), 86 nM.

Consider `Cn1c(C(C)(C)C)c/c(=N\C(=O)c2cc(C(F)(F)F)ccc2OCC(C)(C)OCc2ccccc2)n1C[C@H]1CCCO1` [Example 55, 2-[2-(benzyloxy)-2-methylpropoxy]-N-{(3E)-5-tert-butyl-1-methyl-2-[(2R)-tetrahydrofuran-2-ylmethyl]-1,2-dihydro-3H-pyrazol-3-ylidene}-5-(trifluoromethyl)benzamide], for which the Ki on human CB2 receptors (human CB2 (Ki, nM)) was > 1000 nM; at rat CB2 (rat CB2 (Ki, nM)), 458 nM.

For the compound `Cn1c(C(C)(C)C)c/c(=N\C(=O)c2cc(C(F)(F)F)ccc2OC[C@@H](O)CNC(C)(C)C)n1C[C@H]1CCCO1` [Example 105, 2-{[(2S)-3-(tert-butylamino)-2-hydroxypropyl]oxy}-N-{(3E)-5-tert-butyl-1-methyl-2-[(2R)-tetrahydrofuran-2-ylmethyl]-1,2-dihydro-3H-pyrazol-3-ylidene}-5-(trifluoromethyl)benzamide], the inhibitory constant (Ki) at human CB2 receptors (read-out: human CB2 (Ki)) is > 1000 nM; at rat CB2 (read-out: rat CB2 (Ki)), 406 nM.

Consider `CCCCn1/c(=N/C(=O)c2cc(C#N)ccc2OCC(C)(C)O)cc(C(C)(C)C)n1C` [Example 108, N-[(3E)-2-butyl-5-tert-butyl-1-methyl-1,2-dihydro-3H-pyrazol-3-ylidene]-5-cyano-2-(2-hydroxy-2-methylpropoxy)benzamide], for which the Ki is > 1000 nM at human CB2 receptors (read-out: human CB2 (Ki)) and 288 nM on rat CB2 (read-out: rat CB2 (Ki)).

`COCCCn1/c(=N/C(=O)c2cc(C(F)(F)F)ccc2OCC(C)(C)O)cc(C(C)(C)C)n1C` [Example 122, N-[(3E)-5-tert-butyl-2-(3-methoxypropyl)-1-methyl-1,2-dihydro-3H-pyrazol-3-ylidene]-2-(2-hydroxy-2-methylpropoxy)-5-(trifluoromethyl)benzamide]: the Ki on human CB2 receptors (human CB2 (Ki, nM)) was determined as 91 nM; at rat CB2 (rat CB2 (Ki, nM)), 27 nM.
